According to US20250084041A1, “ANTIMICROBIAL COMPOUNDS AND METHODS” (Curza Global, LLC, priority 2021, published 2025):
Where a name gives a salt, the structure may show the parent alone. Read-outs that look alike come from different tables or passages of the source.

Experiments:
[1] = tested on: E. coli S30 extract; test: E. coli S30 extract: inhibition of bacterial protein synthesis (luciferase); assay type: biochemical; details: 37° C. 1 hour
Procedure: E. coli S30 extract: Inhibition of bacterial protein synthesis was determined using the E. coli S30 Extract System for Circular DNA (Promega catalog #L-2010) and Luciferase Assay Reagent (Promega catalog #E1500) with slight modifications to a published protocol. Fyfe, C., Sutcliffe, J. A. and Grossman, T. H. (2012) “Development and characterization of a Pseudomonas aeruginosa in vitro coupled transcription-translation assay system for evaluation of translation inhibitors” J. Microbiol. Methods 90(3), 256-261.
Compounds were serial diluted in 0.5 mL microcentrifuge tubes by mixing and transferring 50 μL from the highest concentration to 50 μL of water, mixing and transferring 50 μL of this 2-fold dilution to 50 μL of water. This mixing and transferring was repeated so that there are a total of 8 tubes with serial dilutions of compound at 10× the desired screening concentration that are ultimately diluted to 1× by the addition of S30 luciferase synthesis mixture. Serial dilutions of compounds were added (2 μL) to wells in a black round bottom 96-well plate. Water (2 μL) was used as a “no inhibitor” control in 4 wells/plate. No DNA control reaction mixture (20 μL; see below) was used as a control in 4 wells/plate for background luminescence. S30 luciferase synthesis mixture (18 μL; see below) was added to wells with compounds or water mixture and incubated at 37° C. for 1 hour. Reactions were stopped by transferring to 4° C. refrigerator for 5 minutes then 25 μL of luciferase activity mix was added. Luminescence was measured using a BioTek Synergy HTX plate reader. % Inhibition was determined relative to no inhibitor controls.
• 445 μL S30 extract, circular • 712 μL S30 Premix without amino acids • 4.45 μL pBESTluc™ DNA (1 μg/μL) • 78 μL complete amino acid mixture • 267 μL water
• 20 μL S30 extract, circular • 32 μL S30 Premix without amino acids • 7 μL complete amino acid mixture • 21 μL water

[2] = tested on: E. faecalis (Ef); test: Broth microdilution MIC, E. faecalis; assay type: cell-based; details: Enterococcus faecalis, read-out: Ef + bicarb 25 (MIC)
Procedure: (§1) A certified BSL-2 laboratory was used for testing. Compounds were evaluated using the broth microdilution minimum inhibitory concentration (MIC) and minimum bactericidal concentration (MBC) assays defined by Clinical and Laboratory Standards Institute (CLSI) in the M26-A guideline against S. aureus (Sa), E. coli (Ec), K. pneumoniae (Kp), A. baumannii (Ab), E. faecalis (Ef) and P. aeruginosa (Pa).
(§2) MICs were determined using the Clinical Laboratory and Standards Institute (CLSI) Broth Microdilution Method with slight modification. Clinical and Laboratory Standards Institute (2012). “Methods for dilution antimicrobial susceptibility tests for bacteria that grow aerobically; approved standard, 9th ed. M07-A9. Clinical and Laboratory Standards Institute, Wayne, PA.” Serial two-fold dilutions of compounds are prepared in sterile clear round-bottom 96-well plates.
(§3) To prepare microdilution trays, two-fold dilutions of antimicrobial agent are prepared in growth medium: Cation-Adjusted Mueller-Hinton Broth (CAMHB), or CAMHB supplemented with sodium bicarbonate (25 mM final concentration prepared from a 1.0 M stock solution) or CAMHB supplemented with heat inactivated human serum (Fisher Cat. #BP2657100) 0-50% by adding 200 μL of the highest concentration to be tested (64 μg/mL, for example) in row A, mixing and transferring 100 μL from row A to 100 μL growth medium in row B, then repeating the mixing and transferring through row H of the 96-well plate, discarding the excess 100 μL remaining. This slight modification to the CLSI protocol enables evaluation of MICs for 3 compounds per plate in triplicate, albeit with only 8 compound dilutions (CLSI protocol enables 2 compounds in triplicate with 10 dilutions). Bacterial suspensions are added to a final concentration of 5×10^4 CFU/well by adding 5 μL of a 1:10 dilution of a 0.5 McFarland suspension (1×10^8 CFU/mL) for each bacterium evaluated. Bacterial suspensions were prepared using the growth method described by CLSI. Well-isolated colonies (3-5 from an agar plate) were selected using a sterile loop and used to inoculate a tube containing 4 mL of CAMHB. The cultures are incubated at 35±2° C. until it achieves or exceeds the turbidity of the 0.5 McFarland standard, determined by measuring A600nm (usually two to six hours). When growth exceeds a 0.5 McFarland standard, the turbidity is adjusted with broth to be equivalent to a 0.5 McFarland standard.

[3] = tested on: P. aeruginosa (Pa); test: Broth microdilution MIC, P. aeruginosa; assay type: cell-based; details: Pseudomonas aeruginosa, read-out: Pa + bicarb 25 (MIC)
Procedure: as §1, §2, §3

[4] = target: Rabbit Reticulocyte Lysate; test: Rabbit Reticulocyte Lysate: inhibition of eukaryotic protein synthesis (luciferase); assay type: biochemical; details: 30° C. 90 minutes, read-out: Retic. IC50
Procedure: Inhibition of eukaryotic protein synthesis was determined using the Rabbit Reticulocyte Lysate System, Nuclease-Treated from Promega (catalog #L-4960) with slight modifications to the manufacturer's protocol. Compounds were serial diluted in 0.5 mL microcentrifuge tubes by mixing and transferring 50 μL from the highest concentration to 50 μL of water, mixing and transferring 50 μL of this 2-fold dilution to 50 μL of water. This mixing and transferring was repeated so that there are a total of 8 tubes with serial dilutions of compound at 10× the desired screening concentration that are ultimately diluted to 1× by the addition of rabbit reticulocyte luciferase synthesis mixture. Serial dilutions of compounds were added ([…]) to wells in a black round bottom 96-well plate. Water (2.5 μL) was used as a “no inhibitor” control in 4 wells/plate. No RNA control reaction mixture ([…]; see below) was used as a control in 4 wells/plate for background luminescence. Rabbit reticulocyte luciferase synthesis mixture (22.5 μL; see below) was added to wells with compounds or water mixture and incubated at 30° C. for 90 minutes. Luciferase assay reagent (25 μL) was added with luminescence measured using a BioTek Synergy HTX plate reader. % Inhibition was determined relative to no inhibitor controls.
• 1,000 μL rabbit reticulocyte lysate • 5.7 μL Luciferase Control RNA (1 μg/μL) • 26 μL complete amino acid mixture • 395 μL water
• 70 μL rabbit reticulocyte lysate • 2 μL complete amino acid mixture • 28 μL water

[5] = tested on: S. aureus (Sa); test: Broth microdilution MIC, S. aureus; assay type: cell-based; details: Staphylococcus aureus, read-out: Sa + bicarb 25 (MIC)
Procedure: as §1, §2, §3

[6] = tested on: E. coli (Ec); test: Broth microdilution MIC, E. coli; assay type: cell-based; details: Escherichia coli, read-out: E. coli + bicarb 25 (MIC)
Procedure: as §1, §2, §3

[7] = tested on: A. baumannii (Ab); test: Broth microdilution MIC, A. baumannii; assay type: cell-based; details: Acinetobacter baumannii, read-out: Ab + bicarb 25 (MIC)
Procedure: as §1, §2, §3

[8] = E. faecalis, CAMHB supplemented with sodium bicarbonate 25 mM
[9] = P. aeruginosa, CAMHB supplemented with sodium bicarbonate 25 mM
[10] = S. aureus, CAMHB supplemented with sodium bicarbonate 25 mM
[11] = E. coli, CAMHB supplemented with sodium bicarbonate 25 mM
[12] = A. baumannii, CAMHB supplemented with sodium bicarbonate 25 mM

Compound | IC50 [1] [nM] | MIC [2] [µg/mL] | MIC [3] [µg/mL] | IC50 [4] [nM] | MIC [5] [µg/mL] | MIC [6] [µg/mL] | MIC [7] [µg/mL] | MIC [2, 8] [µg/mL] | MIC [3, 9] [µg/mL] | MIC [5, 10] [µg/mL] | MIC [6, 11] [µg/mL] | MIC [7, 12] [µg/mL]
CC(C)(N)C(=O)N1CCN(C(=O)Nc2ccn(C3CCC(CN[C@H]4CC[C@H](N)CC4)CC3)c(=O)n2)CC1 (mixture of isomers) [Compound 11, 4-(2-Amino-2-methylpropanoyl)-N-(1-(4-(((trans-4-aminocyclohexyl)amino)methyl)cyclohexyl)-2-oxo-1,2-dihydropyrimidin-4-yl)piperazine-1-carboxamide hydrochloride salt] | < 500 | < 8 | > 32 | ≥ 1000 | < 8 | < 8 | > 32 | – | – | – | – | –
CN(CC1CC=C(n2ccc(NC(=O)N3CCN(C(=O)C(C)(C)N)CC3)nc2=O)CC1)[C@H]1CC[C@H](N)CC1 (single isomer, unassigned) [Compound 32, trans-4-(2-Amino-2-methylpropanoyl)-N-(1-(4-(((4-aminocyclohexyl)(methyl)amino)methyl)cyclohex-1-en-1-yl)-2-oxo-1,2-dihydropyrimidin-4-yl)piperazine-1-carboxamide hydrochloride salt] | < 500 | 8 to 32 | > 32 | ≥ 1000 | < 8 | < 8 | > 32 | – | – | – | – | –
CC(C)(N)C(=O)N1CCN(C(=O)Nc2ccn(C3=CCC(CN4C[C@@H]5[C@@H](N)[C@@H]5C4)CC3)c(=O)n2)CC1 (single isomer, unassigned) [Compound 33, 4-(2-Amino-2-methylpropanoyl)-N-(1-(4-(((exo)-6-amino-3-azabicyclo[3.1.0]hexan-3-yl)methyl)cyclohex-1-en-1-yl)-2-oxo-1,2-dihydropyrimidin-4-yl)piperazine-1-carboxamide hydrochloride salt] | < 500 | – | – | ≥ 1000 | – | – | – | < 8 | > 32 | < 8 | < 8 | 8 to 32
CC(C)(N)C(=O)N1CCN(C(=O)Nc2ccn(C3=CCC(CN4CCC5(CC4)CC(N)C5)CC3)c(=O)n2)CC1 (single isomer, unassigned) [Compound 36] | < 500 | – | – | ≥ 1000 | – | – | – | < 8 | 8 to 32 | < 8 | < 8 | 8 to 32
CC1(N)CCN(CC2CC=C(n3ccc(NC(=O)N4CCN(C(=O)C(C)(C)N)CC4)nc3=O)CC2)CC1 (single isomer, unassigned) [Compound 37, 4-(2-Amino-2-methylpropanoyl)-N-(1-(4-((4-amino-4-methylpiperidin-1-yl)methyl)cyclohex-1-en-1-yl)-2-oxo-1,2-dihydropyrimidin-4-yl)piperazine-1-carboxamide hydrochloride salt] | < 500 | < 8 | > 32 | ≥ 1000 | < 8 | < 8 | > 32 | – | – | – | – | –
CC(C)(N)C(=O)N1CCN(C(=O)Nc2ccn(C3=CCC(CN[C@H]4CC[C@H](N)CC4)CC3)c(=O)n2)CC1 (single isomer, unassigned) [Compound 39, trans-4-(2-Amino-2-methylpropanoyl)-N-(1-(4-(((4-aminocyclohexyl)amino)methyl)cyclohex-1-en-1-yl)-2-oxo-1,2-dihydropyrimidin-4-yl)piperazine-1-carboxamide hydrochloride salt] | < 500 | < 8 | > 32 | ≥ 1000 | < 8 | < 8 | > 32 | – | – | – | – | –
CC(C)(N)C(=O)N1CCN(C(=O)Nc2ccn(C3=CCC(CN4CCCC(N)CC4)CC3)c(=O)n2)CC1 (single isomer, unassigned) [Compound 41, 4-(2-Amino-2-methylpropanoyl)-N-(1-(4-((4-aminoazepan-1-yl)methyl)cyclohex-1-en-1-yl)-2-oxo-1,2-dihydropyrimidin-4-yl)piperazine-1-carboxamide hydrochloride salt] | < 500 | < 8 | > 32 | ≥ 1000 | < 8 | < 8 | > 32 | – | – | – | – | –
CC(C)(N)C(=O)N1CCN(C(=O)Nc2ccn(C3=CCC(CN4CC[C@H](CN)C4)CC3)c(=O)n2)CC1 (stereo in doubt) [Compound 23, (S)-4-(2-Amino-2-methylpropanoyl)-N-(1-(4-((3-(aminomethyl)pyrrolidin-1-yl)methyl)cyclohex-1-en-1-yl)-2-oxo-1,2-dihydropyrimidin-4-yl)piperazine-1-carboxamide hydrochloride salt] | < 500 | 8 to 32 | > 32 | ≥ 1000 | < 8 | < 8 | > 32 | – | – | – | – | –
CCN(CC1CC=C(n2ccc(NC(=O)N3CCN(C(=O)C(C)(C)N)CC3)nc2=O)CC1)[C@H]1CC[C@H](N)CC1 (stereo partly drawn) [Compound 31, trans-4-(2-Amino-2-methylpropanoyl)-N-(1-(4-(((4-aminocyclohexyl)(ethyl)amino)methyl)cyclohex-1-en-1-yl)-2-oxo-1,2-dihydropyrimidin-4-yl)piperazine-1-carboxamide hydrochloride salt] | < 500 | < 8 | > 32 | ≥ 1000 | < 8 | < 8 | – | – | – | – | – | –
